The source of these data is patent publication US8980924B2, “Non-retinoid RBP4 antagonist for treatment of age-related macular degeneration and stargardt disease” (The Trustees of Columbia University in the City of New York, priority 2010, dated 2015).

The test system of one series is insulin sensitivity. As to conditions: mouse diabetes models; cited from earlier work.
In series [1] the test system is bisretinoids (A2E/isoA2E, A2-DHP-PE, atRAL di-PE). Put plainly: Bisretinoid levels in eyes of treated mice (tissue extraction and HPLC). It is filed as in vivo. Conditions: orally dosed for 3 weeks at 30 mg/kg. The text has this:
(§1) The Abca4−/− mouse model manifests accelerated accumulation of lipofuscin in the RPE and is considered a preclinical efficacy model for a drug reducing lipofuscin accumulation. […] There was approximately a 70% reduction in the serum RBP4 level in treated animals (FIG. 11). Additionally, the inventors discovered that that the levels of A2E/isoA2E were reduced by approximately 50% in treated mice (FIG. 12).
Abca4/Abcr null mutant mice (albino) homozygous for Rpe65-Leu450 are bred genotyped and housed. Posterior eyecups of mice and RPE/choroids harvested from human donor eyes (National Disease Research Interchange, Philadelphia Pa.) are homogenized in phosphate buffered saline (PBS) using a glass tissue grinder and extracted in chloroform/methanol (2:1). […] An Alliance system (Waters, Corp, Milford, Mass.) equipped with 2695 Separation Module, 2996 Photodiode Array Detector, a 2475 Multi λ Fluorescence Detector and operating with Empower® software is used for HPLC analysis. […] HPLC quantification is carried out using the Empower® software to determine peak areas. […] Molar quantity per murine eye is determined using calibration curves constructed from known concentrations of purified external standards and by normalizing to the ratio of the HPLC injection volume (10 μL) versus total extract volume.

In another series the test system is ERG b-wave. The experiment in a line: ERG b-wave after photobleaching. It is filed as in vivo. As to conditions: FIG. 10.
A further series has as its target T1, serum RBP4 (Mus musculus, UniProt Q00724).
T1 construct: from tissue; host or cells: mouse serum (in vivo, oral dosing)
The experiment in a line: Serum RBP4 level in treated mice. It counts as in vivo. As to conditions: orally dosed for 3 weeks at 30 mg/kg; wild-type and Abca4−/− mice; FIG. 11.
Description: as §1

A further series concerns the target T2, RBP4-TTR interaction (Homo sapiens, UniProt P02753).
T2 construct: made in house; host or cells: E. coli
Put plainly: TR-FRET (HTRF) RBP4-TTR interaction assay, agonist mode. It counts as biochemical. As to conditions: without retinol, FIG. 8. The text has this:
TR-FRET (Time-Resolved Fluorescence Resonance Energy Transfer) is an assay format that can be used in characterization of compounds affecting protein-protein interactions (31-33). […] In the presence of retinol, RBP4-TTR interaction induces FRET that can be registered as increased ratio of […] fluorescence signals. Binding of a desired RBP4 antagonist displaces retinol and induces hindrance for RBP4-TTR interaction resulting in the decreased FRET signal (FIG. 7).
The inventors developed an assay using E. coli-expressed MBP-tagged RBP4 and commercially available TTR labeled directly with Eu3+ cryptate. In addition to MBP-RBP4 and Eu3+ (K)-TTR, a detector reagent anti-MBP-d2 was present in the mix. The assay was first optimized in the agonist mode; sensitivity and dynamic range of the assay was […] in respect to RBP4, TTR and detection reagent concentrations.
A general note: TR-FRET usually uses a lanthanide donor and a delayed reading to cut background.

For the next series, the target named is serum RBP4 and retinol (Rattus norvegicus, UniProt P04916). Conditions: reference 15; cited from earlier work.
For another series, the system named is A2E production. Conditions: Abca4−/− mice, reference 11; cited from earlier work.

For the compound `O=C(O)c1ccccc1NC(=O)N1CCC(c2ccccc2C(F)(F)F)CC1` [Compound 1, 2(4-(2-(trifluoromethyl)phenyl)piperidine-1-carboxamido)benzoic acid], the “effect on insulin sensitivity” value with insulin sensitivity is reported as “did not improve insulin sensitivity”. Further, the “levels of A2-DHP-PE and atRAL di-PE” value in series [1] was “also reduced”. Also, the “effect on ERG b-wave after photobleaching” value in the series with ERG b-wave is on record as “does not reduce ERG b-wave”. Moreover, the “reduction in the serum RBP4 level” value at serum RBP4 was about 70%. In addition, at RBP4-TTR interaction, the “induction of RBP4-TTR interaction” value was “did not induce RBP4-TTR interaction”.
Take `CC1=C(/C=C/C(C)=C/C=C/C(C)=C/C(=O)Nc2ccc(O)cc2)C(C)(C)CCC1` [fenretinide, N-(4-hydroxy-phenyl)retinamide]: the “induction of RBP4-TTR interaction” value on RBP4-TTR interaction is “did not induce RBP4-TTR interaction”. For the same compound, the “effect on serum RBP4 and retinol” value on serum RBP4 and retinol was “reduce serum RBP4 and retinol”. Moreover, the “effect on A2E production” value with A2E production was “reduced A2E production”.
